According to patent US10150765B2, “P2X7 modulators” (Janssen Pharmaceutica NV, priority 2013, dated 2018):

Molecular target: P2X7 (Homo sapiens (Human), UniProt Q99572)
Assay: P2X7 antagonism in human PBMCs (LPS + Bz-ATP induced IL-1β release, ELISA)
Assay type: cell-based
Settings: 10 μM compound, LPS 30 ng/ml + 0.5 mM Bz-ATP
Procedure: Human blood was collected using a blood donor program. PBMCs were isolated from blood using a Ficoll density gradient technique. Briefly, blood was laid on Ficoll solution and centrifuged at RT for 20 minutes at 2000 rpm. The buffy layer (between red blood cells and plasma) was carefully collected by aspiration, washed with PBS and centrifuged again at 1500 rpm for 15 minutes. The resulting cell pellet was washed and plated on 96 well-plates for experiments. […] Lipopolysaccharide (LPS) (30 ng/ml) was added to each well and incubated for 1 hour. Test compounds were then added and incubated for 30 minutes. The P2X7 agonist, 2′(3′)-O-(4-benzoylbenzoyl) adenosine 5′ triphosphate (Bz-ATP) was then added at a final concentration of 0.5 mM (PBMC) or 1 mM (blood). Cells were incubated for an additional 1.5 hours. At that point, supernatant was collected and stored for IL-1β assay using manufacturer's protocol for enzyme-linked immunosorbent assay (ELISA). Data was expressed as percent control, where control is defined as the difference in IL-1β release in LPS+Bz-ATP samples and LPS only samples. Data was plotted as response (% control) versus concentration to generate IC50 values.

P2X7, sequence (Q99572 whole entry): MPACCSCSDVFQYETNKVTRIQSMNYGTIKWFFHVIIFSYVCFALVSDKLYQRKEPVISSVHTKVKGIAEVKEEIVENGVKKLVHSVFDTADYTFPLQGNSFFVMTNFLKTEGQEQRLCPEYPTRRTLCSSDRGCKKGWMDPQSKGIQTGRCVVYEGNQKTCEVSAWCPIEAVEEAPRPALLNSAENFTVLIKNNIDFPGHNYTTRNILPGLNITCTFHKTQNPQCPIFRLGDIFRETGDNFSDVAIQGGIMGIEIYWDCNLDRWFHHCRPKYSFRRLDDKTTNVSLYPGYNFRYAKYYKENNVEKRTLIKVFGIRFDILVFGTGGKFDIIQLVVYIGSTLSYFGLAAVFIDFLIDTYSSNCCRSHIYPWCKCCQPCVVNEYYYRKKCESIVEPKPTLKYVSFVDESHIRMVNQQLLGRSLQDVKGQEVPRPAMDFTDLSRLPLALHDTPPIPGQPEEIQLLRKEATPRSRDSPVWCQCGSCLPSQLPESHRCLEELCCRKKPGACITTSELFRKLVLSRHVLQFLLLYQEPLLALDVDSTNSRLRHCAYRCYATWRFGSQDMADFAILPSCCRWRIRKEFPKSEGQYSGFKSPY

Row | Compound | PBMC 10 μM (% control)
1 | CC1c2nn(COCC[Si](C)(C)C)c(-c3ncc(F)cn3)c2CCN1C(=O)c1cccc(C(F)(F)F)c1Cl (stereo not drawn) [Example 303, (2-chloro-3-(trifluoromethyl)phenyl)(3-(5-fluoropyrimidin-2-yl)-7-methyl-2-((2-(trimethylsilyl)ethoxy)methyl)-4,5-dihydro-2H-pyrazolo[3,4-c]pyridin-6(7H)-yl)methanone] | −1.6
2 | Cc1nc(-n2nnc3c2CCN(C(=O)c2cccc(C(F)(F)F)c2Cl)C3C)ncc1F (single isomer, unassigned) [Example 306, (S*)-(2-chloro-3-(trifluoromethyl)phenyl)(1-(5-fluoro-4-methylpyrimidin-2-yl)-4-methyl-6,7-dihydro-1H-[1,2,3]triazolo[4,5-c]pyridin-5(4H)-yl)methanone] | 2.5
3 | Cc1cc(C)nc(-n2nnc3c2CCN(C(=O)c2cccc(C(F)(F)F)c2Cl)C3C)n1 (stereo not drawn) [Example 253, (2-Chloro-3-(trifluoromethyl)phenyl)(1-(4,6-dimethylpyrimidin-2-yl)-4-methyl-6,7-dihydro-1H-[1,2,3]triazolo[4,5-c]pyridin-5(4H)-yl)methanone] | −2.6
4 | CC1c2nnn(-c3ncccn3)c2CCN1C(=O)c1ccc(Cl)cc1Cl (stereo not drawn) [Example 283, (2,4-dichlorophenyl)(4-methyl-1-(pyrimidin-2-yl)-6,7-dihydro-1H-[1,2,3]triazolo[4,5-c]pyridin-5(4H)-yl)methanone] | −6.3
5 | C[C@@H]1c2nnn(-c3ccc(F)cc3)c2C[C@H](C)N1C(=O)c1cccc(C(F)(F)F)c1Cl [Example 287, (2-chloro-3-(trifluoromethyl)phenyl)((4R,6 S)-1-(4-fluorophenyl)-4,6-dimethyl-6,7-dihydro-1H-[1,2,3]triazolo[4,5-c]pyridin-5(4H)-yl)methanone] | −4.1
6 | C[C@@H]1c2ncn(-c3ccccn3)c2CCN1C(=O)c1cccc(C(F)(F)F)c1F (single isomer, unassigned) [Example 42, (4R*)-5-{[2-Fluoro-3-(trifluoromethyl)phenyl]carbonyl}-4-methyl-1-pyridin-2-yl-4,5,6,7-tetrahydro-1H-imidazo[4,5-c]pyridine] | 5.8
